# Experiments:
# Assay type in all cases: cell-based
# U2OS cells = assay: Colony survival assay, U2OS cells; conditions: varying cisplatin, 48 hours
# Description: (§1) H1975 cells were plated in 24-well plates at 50,000 cells/well (for 50 µM inhibitor treatment) or 20,000 cells/well (for […] inhibitor treatment). U2OS and A549 cells were plated in 24-well plates at 5000 cells/well. The next day, cells were treated with varying concentrations of cisplatin, either with or without added inhibitor compound. After 48 hours of cisplatin+compound treatment, the cells were washed 3 times with PBS×1 and fresh media applied. After 4 days of recovery, the cells were stained with methylene blue and imaged using a Nikon SMZ25 stereomicroscope. The images were analyzed using the ImageJ (National Institutes of Health) area measurement tool to quantify total colony size in each well.
# A549 cells = assay: Colony survival assay, A549 cells; conditions: A549, 5 μM cisplatin
# Description: as §1
# (§2) Cells were plated in 24-well plates at 50,000 cells/well (H1975 line) or 10,000 cells/well (A549 line). The next day, cells were treated with varying concentrations of cisplatin ([…]), with or without 50 μM compound. For the untreated control wells containing only cisplatin, DMSO was applied in place of the compound. After 48 hours of cisplatin+compound treatment, the cells were washed 3 times with PBS and fresh media was applied. After 4 days of recovery, the cells were stained with methylene blue and imaged using a Nikon SMZ25 stereomicroscope. The images were analyzed using the ImageJ (National Institutes of Health) area measurement tool to quantify total colony size in each well.
# (§3) In order to assess the ability of the selected compounds to sensitize cells during cisplatin treatment, the inventors established a colony survival assay comparing the viability of cells treated with cisplatin alone or with combined treatment of cisplatin and 50 μM compound. For the compound screen, we used two lung cancer cell lines: human non-small lung carcinoma H1975 cells, and epithelial lung adenocarcinoma A549 cells. Out of ten compounds tested, compounds c #2 and c #3 were identified with the most significant sensitization effect and were chosen for future characterization. […] Survival rate was reduced from 90% in 5 μM cisplatin treatment to 50% survival in the combined treatment (FIGS. 11A-B). H1975 cells presented similar behavior following doxorubicin treatment (FIG. 11C). IC50 was calculated using linear regression, presenting a clear reduction of cisplatin's IC50 in all treatments.
# H1975 cells = assay: Colony survival assay, H1975 cells; conditions: H1975, 5 μM cisplatin
# Description: as §1, §2, §3
Structure (SMILES),cell survival with cisplatin plus inhibitor (U2OS cells),"survival rate, cisplatin alone (A549 cells)","survival rate, cisplatin alone (H1975 cells)"
CCCC(=O)Nc1cccc(C(=O)Nc2nnc(COC)s2)c1 [Compound 9],no activity,–,–
"N.N.[Cl][Pt][Cl] [cisplatin, cis-diamminedichloroplatinum(II), reference compound]",–,90%,90%

# Reference: patent US20250255876A1, “COMPOSITIONS AND METHODS FOR CANCER TREATMENT” (ARIEL SCIENTIFIC INNOVATIONS LTD., priority 2021, published 2025)
